# Results: patent US8785662B2, “Anilide-based compounds for preserving wood and method of use thereof” (SDS Biotech K.K., priority 2010, dated 2014)
# Tested on: Fomitopsis palustris
# Experiment: Agar plate colony growth inhibition test on Fomitopsis palustris
# Assay type: cell-based
# Conditions: 0.5 ppm in potato dextrose agar, 25° C., colony diameter on the seventh day vs control
# Method: Each of 1% w/v dimethylsulfoxide solution of compound A, compound B and comparative compounds 1 to 13 was prepared. A predetermined amount of the solutions diluted with dimethylsulfoxide were fully mixed in the sterilized potato dextrose agar medium, and 15 ml of the resultant medium was poured into a petri dish 90 mm in diameter and allowed to stand at room temperature. As a control, the potato dextrose agar medium added with dimethylsulfoxide only was also prepared. […] The fungi was cultivated in the petri dish at 25° C., and the diameter of the colony spread from the source of inoculum was measured on the seventh day. The growth inhibition ratio between the diameter of the test colony and that of the control was determined by the following formula as an indication of the degree of inhibition. Compounds A and B apparently had greater effects on Fomitopsis palustris compared to the compounds which had been disclosed in the past. Growth inhibition ratio (%)={(diameter of the control colony−diameter of the test colony)/diameter of the control colony}×100 [Formula 1]
row,SMILES,Degree of inhibition on Fomitopsis palustris at 0.5 ppm
1,"Cc1cc(C(=O)Nc2cccc(C(C)C)c2)c(C(F)(F)F)o1 [Compound A, 3′-isopropyl-5-methyl-2-trifluoromethylfuran-3-carboxylic acid anilide]",∘ (inhibition ratio of 75% or more)
2,"Cc1cccc(NC(=O)c2cc(C)oc2C)c1 [compound 3, 3′-methyl-2,5-dimethylfuran-3-carboxylic acid anilide]",x (inhibition ratio of 25% or less)
3,"Cc1cc(C(=O)Nc2cccc(OC(C)C)c2)c(C(F)(F)F)o1 [Compound B, 3′-isopropoxy-5-methyl-2-trifluoromethylfuran-3-carboxylic acid anilide]",∘ (inhibition ratio of 75% or more)
4,"Cc1ncsc1C(=O)Nc1cccc(C(C)C)c1 [compound 9, 3′-isopropyl-4-methylthiazole-5-carboxylic acid anilide]",x (inhibition ratio of 25% or less)
5,"Cc1occc1C(=O)Nc1cccc(C(C)C)c1 [compound 8, 3′-isopropyl-2-methylfuran-3-carboxylic acid anilide]",▴ (inhibition ratio of 25 to 50%)
6,"CC(C)c1cccc(NC(=O)c2ccoc2)c1 [compound 7, 3′-isopropyl-3-furancarboxylic acid anilide]",x (inhibition ratio of 25% or less)
7,"CC(C)Oc1cccc(NC(=O)c2ccccc2C(F)(F)F)c1 [compound 4, 3′-isopropoxy-2-trifluoromethyl benzoic acid anilide]",▴ (inhibition ratio of 25 to 50%)
8,"CC(C)c1cccc(NC(=O)c2cn(C)nc2C(F)(F)F)c1 [compound 13, 3′-isopropyl-1-methyl-3-trifluoromethylpyrazole-4-carboxylic acid anilide]",▴ (inhibition ratio of 25 to 50%)
9,"Cc1ccccc1C(=O)Nc1cccc(OC(C)C)c1 [compound 5, 3′-isopropoxy-2-methylbenzoic acid anilide]",▴ (inhibition ratio of 25 to 50%)
10,"Cc1cc(C(=O)Nc2cccc(C(C)C)c2)c(C)[nH]1 [compound 12, 3′-isopropyl-2,5-dimethylpyrrole-3-carboxylic acid anilide]",x (inhibition ratio of 25% or less)
11,"Cc1ccccc1C(=O)Nc1cccc(C(C)C)c1 [compound 6, 3′-isopropyl-2-methylbenzoic acid anilide]",▴ (inhibition ratio of 25 to 50%)
12,"CCc1cccc(NC(=O)c2cc(C)oc2C)c1 [compound 2, 3′-ethyl-2,5-dimethylfuran-3-carboxylic acid anilide]",▴ (inhibition ratio of 25 to 50%)
13,"Cc1nc(C(F)(F)F)c(C(=O)Nc2cccc(C(C)C)c2)s1 [compound 11, 3′-isopropyl-2-methyl-4-trifluoromethyl-1,3-thiazole-5-carboxylic acid anilide]",▴ (inhibition ratio of 25 to 50%)
14,"Cc1cc(C(=O)Nc2cccc(C(C)C)c2)c(C)o1 [compound 1, 3′-isopropyl-2,5-dimethylfuran-3-carboxylic acid anilide]",▴ (inhibition ratio of 25 to 50%)
15,"Cc1nc(C)c(C(=O)Nc2cccc(C(C)C)c2)s1 [compound 10, 3′-isopropyl-2,4-dimethyl-1,3-thiazole-5-carboxylic acid anilide]",Δ (inhibition ratio of 50 to 75%)

# Tested on: Trametes versicolor
# Experiment: Agar plate colony growth inhibition test on Trametes versicolor, single compounds and mixtures with triazoles (Colby)
# Assay type: cell-based
# Conditions: single compound 0.2 ppm, potato dextrose agar, 25° C., seventh day
# Method: Each of 1% w/v dimethylsulfoxide solution of compound A, compound B, cyproconazole (manufactured by Wako Pure Chemical Industries, Ltd.), epoxyconazole (manufactured by Wako Pure Chemical Industries, Ltd.) and tetraconazole (manufactured by Wako Pure Chemical Industries, Ltd.) was prepared. The solutions diluted with dimethylsulfoxide were fully mixed in the sterilized potate dextrose agar medium, and 15 ml of the resultant medium was poured into a petri dish 90 mm in diameter and allowed to stand at room temperature. As a control, the potate dextrose agar medium added with dimethylsulfoxide only was also prepared. After the medium was solidified, the mycelia was scooped with the medium from the colony of Trametes versicolor as being a typical wood-decaying fungi, which had been cultivated in advance, using a cork bailer 5 mm in diameter; and inoculated in the center of the test medium. The fungi was cultivated in the petri dish at 25° C., and the diameter of the colony spread from the source of inoculum was measured on the seventh day. The growth inhibition ratio by comparing the diameter of the test colony to that of the control was determined by the above-mentioned formula as an indication of the actual measured growth inhibition ratio. The theoretical efficacy ratio of the mixture of the active ingredients (i.e. theoretical growth inhibition ratio) was determined using the following Colby's formula (R. S. Colby, Weeds 15, 20-22 (1967)) to thereby be compared with the actual-measured efficacy ratio ([…]). […] Colby's formula: E=x+y−x·y/100 [Formula 2] E: theoretical efficacy ratio (theoretical growth inhibition ratio) represented by the ratio (%) to the control when the mixture of active compound B (concentration b) and C (concentration c) was used. x: efficacy ratio (growth inhibition ratio) represented by the ratio (%) to the control when active compound B was used at a concentration of b. y: efficacy ratio (growth inhibition ratio) represented by the ratio (%) to the control when active compound C was used at a concentration of c.
row,SMILES,Actual measured growth inhibition ratio (%)
1,"Cc1cc(C(=O)Nc2cccc(C(C)C)c2)c(C(F)(F)F)o1 [Compound A, 3′-isopropyl-5-methyl-2-trifluoromethylfuran-3-carboxylic acid anilide]",49
2,"Fc1ccc([C@]2(Cn3cncn3)O[C@H]2c2ccccc2Cl)cc1 (racemic) [Epoxiconazole, epoxyconazole]",24
3,"FC(F)C(F)(F)OCC(Cn1cncn1)c1ccc(Cl)cc1Cl (centres unmarked) [Tetraconazole, tetraconazole]",25
4,"Cc1cc(C(=O)Nc2cccc(OC(C)C)c2)c(C(F)(F)F)o1 [Compound B, 3′-isopropoxy-5-methyl-2-trifluoromethylfuran-3-carboxylic acid anilide]",44
5,CC(C1CC1)C(O)(Cn1cncn1)c1ccc(Cl)cc1 (centres unmarked) [cyproconazole],33
